Test results taken from PubChem BioAssay (NCI).
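Here, GI50 denotes the concentration required for 50% inhibition of growth. TGI denotes the concentration required for complete inhibition of growth.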

Key:
Assay in all cases: inhibition of tumour cell growth, NCI panel, 384-well format
786-0 renal = tested on: 786-0 renal
A498 renal = tested on: A498 renal
A549 NSCLC = tested on: A549 NSCLC
ACHN renal = tested on: ACHN renal
BT-549 breast = tested on: BT-549 breast
CAKI-1 renal = tested on: CAKI-1 renal
COLO 205 colon = tested on: COLO 205 colon
DU-145 prostate = tested on: DU-145 prostate
EKVX NSCLC = tested on: EKVX NSCLC
HCT-116 colon = tested on: HCT-116 colon
HCT-15 colon = tested on: HCT-15 colon
HL-60(TB) leukemia = tested on: HL-60(TB) leukemia
HOP-62 NSCLC = tested on: HOP-62 NSCLC
HOP-92 NSCLC = tested on: HOP-92 NSCLC
HS 578T breast = tested on: HS 578T breast
HT29 colon = tested on: HT29 colon
IGROV1 ovarian = tested on: IGROV1 ovarian
K-562 leukemia = tested on: K-562 leukemia
KM12 colon = tested on: KM12 colon
M14 melanoma = tested on: M14 melanoma
MALME-3M melanoma = tested on: MALME-3M melanoma
MCF7 breast = tested on: MCF7 breast
MDA-MB-231 breast = tested on: MDA-MB-231 breast
MDA-MB-435 melanoma = tested on: MDA-MB-435 melanoma
MDA-MB-468 breast = tested on: MDA-MB-468 breast
MOLT-4 leukemia = tested on: MOLT-4 leukemia
NCI-H226 lung = tested on: NCI-H226 lung
NCI-H23 lung = tested on: NCI-H23 lung

SMILES: CCc1c2c(nc3ccc(OC(=O)N4CCC(N5CCCCC5)CC4)cc13)-c1cc3c(c(=O)n1C2)COC(=O)[C@]3(O)CC
- GI50 ([…]-0 renal): 3.02 µM
- TGI (786-0 renal): 10.4 µM
- GI50 (A498 renal): 5.29 µM
- TGI (A498 renal): 19.9 µM
- GI50 (A549 NSCLC): 8.58 µM
- TGI (A549 NSCLC): 94.1 µM
- GI50 (ACHN renal): 2.11 µM
- TGI (ACHN renal): 5.05 µM
- GI50 (BT-549 breast): 2.51 µM
- TGI (BT-549 breast): 13.4 µM
- GI50 (CAKI-1 renal): 3.08 µM
- TGI (CAKI-1 renal): > 100 µM
- GI50 (COLO 205 colon): 2.7 µM
- TGI (COLO 205 colon): 21 µM
- GI50 (DU-145 prostate): 2.56 µM
- TGI (DU-145 prostate): 9.11 µM
- GI50 (EKVX NSCLC): 13.5 µM
- TGI (EKVX NSCLC): 45 µM
- GI50 (HCT-116 colon): 1.84 µM
- TGI (HCT-116 colon): 15.5 µM
- GI50 (HCT-15 colon): 5.87 µM
- TGI (HCT-15 colon): 24.1 µM
- GI50 (HL-60(TB) leukemia): 1.62 µM
- TGI (HL-60(TB) leukemia): 3 µM
- GI50 (HOP-62 NSCLC): 1.57 µM
- TGI (HOP-62 NSCLC): 4.42 µM
- GI50 (HOP-92 NSCLC): 6.81 µM
- TGI (HOP-92 NSCLC): 43.9 µM
- GI50 (HS 578T breast): 1.69 µM
- TGI (HS 578T breast): 17.4 µM
- GI50 (HT29 colon): 6.08 µM
- TGI (HT29 colon): 19.7 µM
- GI50 (IGROV1 ovarian): 10.3 µM
- TGI (IGROV1 ovarian): 29.1 µM
- GI50 (K-562 leukemia): 3.12 µM
- TGI (K-562 leukemia): 20.8 µM
- GI50 (KM12 colon): 2.04 µM
- TGI (KM12 colon): 10.7 µM
- GI50 (M14 melanoma): 4.12 µM
- TGI (M14 melanoma): 26 µM
- GI50 (MALME-3M melanoma): 10.7 µM
- TGI (MALME-3M melanoma): 36.2 µM
- GI50 (MCF7 breast): 1.3 µM
- TGI (MCF7 breast): 14.8 µM
- GI50 (MDA-MB-231 breast): 16.9 µM
- TGI (MDA-MB-231 breast): > 100 µM
- GI50 (MDA-MB-435 melanoma): 10.9 µM
- TGI (MDA-MB-435 melanoma): 25.7 µM
- GI50 (MDA-MB-468 breast): 0.731 µM
- TGI (MDA-MB-468 breast): 3.01 µM
- GI50 (MOLT-4 leukemia): 0.153 µM
- TGI (MOLT-4 leukemia): 0.301 µM
- GI50 (NCI-H226 lung): 3.43 µM
- TGI (NCI-H226 lung): 18.8 µM
- GI50 (NCI-H23 lung): 2.71 µM
